Patent US20140140951A1, “D-Alanine Ester of Rp-Nucleoside Analog” (priority 2012, published 2014)

Legend:
HCV genotype 1b replicon = test: HCV replicon assay (luciferase reporter); type: cell-based; conditions: Hepatitis C virus; Zluc (Huh-7-derived) cells, 72 hours
Protocol: Huh-7-derived cell line (Zluc) that harbors an HCV genotype 1b replicon and a luciferase reporter gene was grown in Dulbecco's Modified Eagle Medium (DMEM) supplemented with 10% fetal bovine serum, 2 mM GlutaMAX, 1% MEM nonessential amino acids, 100 IU/mL penicillin, 100 μg/mL streptomycin, and 0.5 mg/mL Geneticin® (G418). For dose response testing the cells were seeded in 96-well plates at 7.5×10^3 cells per well in a volume of 50 μL, and incubated at 37° C./5% CO2. Drug solutions were made up freshly in Huh-7 media as 2× stocks. […] were prepared from these stocks in DMEM without G418. At least three hours after Zluc cells were seeded, drug treatment was initiated by adding 50 μL of drug dilutions to the plates in duplicate. Final concentrations of drug ranged from 100 μM to 0.0000512 μM. Cells were then incubated at 37° C./5% CO2. […] For this, media was removed from the plates via gentle tapping. Fifty microliters of ONE-glo luciferase assay reagent was added to each well. The plates were shaken gently for 3 min at room temperature and luminescence was measured on a Victor^3 V 1420 multilabel counter (Perkin Elmer) with a 1 second read time using a 700 nm cut-off filter. The EC50 values were calculated from dose response curves from the resulting best-fit equations determined by Microsoft Excel and XLfit 5.2 software. […]

[1] = Cytotoxicity evaluation (CellTiter-Blue cell viability); type: cell-based; conditions: human, Zluc cells (HCV replicon cells)
Protocol: For cytotoxicity evaluation, Zluc cells were treated with compound as described herein, and cell viability was monitored using the CellTiter-Blue Cell Viability Assay (Promega) by adding 20 μL of the assay solution to each well. The plates were then incubated at 37° C./5% CO2 for at least 3 hours. Fluorescence was detected in plates using excitation and emission wavelengths of 531 and 595 nm, respectively, in a Victor^3 V 1420 multilabel counter (Perkin Elmer) and CC50 values were determined using Microsoft Excel and XLfit 5.2 software.

[2] = Stability in intestinal microsomes; type: in vitro ADME, human; conditions: 10 μM, 1.0 mg/mL protein, NADPH, 60 min
Protocol: (§1) Stability of test compounds was determined in subcellular fractions (microsomes and S9) of human liver and intestine in duplicate for each matrix. Pooled liver and intestinal microsomal, intestinal and liver S9 proteins (1.0 mg/mL), suspended in incubation buffer (100 mM potassium phosphate, pH 7.4, 5 mM MgCl2, and 0.1 mM EDTA), were preincubated for 5 min at 37° C. with 10 μM of a test compound from a 10 mM stock solution in DMSO (final DMSO concentration was 0.1%); the reaction was initiated by the addition of NADPH (3 mM final concentration). At specific times (0 and 60 min), 0.1 mL samples were taken and the reaction terminated by the addition of 4 volumes of stop solution (acetonitrile with 500 ng/mL carbutamide as an internal standard). The samples were vortexed for 30 sec and then centrifuged at 16,000 g for 10 min. Aliquots of supernatants (100 μL each) were transferred to 96 deep-well plates preloaded with 100 μL distilled water and analyzed after mixing by LC-MS/MS. The MS peak area ratio of the test compound versus the internal standard was calculated and percent unchanged test compound over 60 minutes was calculated using this ratio.

[3] = Stability in liver microsomes; type: in vitro ADME, human; conditions: 10 μM, 1.0 mg/mL protein, NADPH, 60 min
Protocol: as §1

[4] = Liver pharmacokinetics (triphosphate) following a single oral dose in CD-1 mice; type: in vivo; conditions: single oral dose 10 mg/kg for I or 25 mg/kg for II in PEG 200, CD-1 male mice
Protocol: Liver samples were analyzed for the active species 2′-methyl-2′-fluorouridine triphosphate (2′-Me-2′-F—U TP) by LC-MS/MS. […] Internal standard solution was added to the homogenate followed by neutralization with 20% ammonium hydroxide solution and addition of 500 μL 1% formic acid. The tissue samples were extracted by weak anion exchange solid phase extraction (SPE). Post extraction, the eluates were evaporated under nitrogen, followed by reconstitution before injection onto the LC-MS/MS system. […] The calibration range was 10 to 10000 pmol/mL in mouse liver homogenate (50 to 50000 pmol/g of mouse liver).

Row | SMILES | EC50 (HCV genotype 1b replicon) [µM] | CC50 at 72 h [1] [µM] | Stability (percent remaining) HIM (1 hr) [2] | Stability (percent remaining) HLM (1 hr) [3] | Ms Liver 2′-Me-2′-F-U TP AUC (pmol · hr/g at 1 μmol/kg) [4]
1 | CC(C)OC(=O)[C@@H](C)N[P@@](=O)(OC[C@H]1O[C@@H](n2ccc(=O)[nH]c2=O)[C@](C)(F)[C@@H]1O)Oc1ccccc1 [Compound (Ia), D-Alanine, N—((RP,2′R)-2′-deoxy-2′-fluoro-2′-methyl-P-phenyl-5′-uridylyl)-, 1-methylethyl ester] | > 10 | > 50 | +++++ (80% < +++++) | ++++ (60% < ++++ ≦ 80%) | +++++ (1600 < +++++)
2 | CC(C)OC(=O)[C@@H](C)N[P@](=O)(OC[C@H]1O[C@@H](n2ccc(=O)[nH]c2=O)[C@](C)(F)[C@@H]1O)Oc1ccccc1 [Compound (Ib)] | > 10 | > 50 | +++++ (80% < +++++) | +++++ (80% < +++++) | +++ (400 < +++ ≦ 1000)
